Data as given in US4332806A, “Antitumor and immunosuppresive 4-carbamoyl imidazolium-5-olate derivatives, pharmaceutical composition and production thereof” (Sumitomo Chemical Company, Limited, priority 1979, dated 1982).

How the values were obtained:
Lewis lung carcinoma = assay: Antitumor effect on experimental tumors in mice, Lewis lung carcinoma (solid), tumor inhibitory ratio; format: in vivo, BDF1 male mice; settings: 100 mg/kg, i.p., schedule 5q2d (day 1, 3, 5, 7 and 9), tumors weighed at day 13
Procedure: The antitumor activities of the compounds of the present invention were estimated according to the methods described in "Cancer chemotherapy reports" Part 3, Vol. 3, (No. 2) p. 13 (1972).
For determining antitumor activities, BDF1 male mice, 5 weeks old, weighing between 18 and 22 grams were used. Each test group was composed of 6 to 7 mice. Two million cells of Lewis Lung Carcinoma were injected in the hind leg. The drug was administered intraperitoneally at day 1, 3, 5, 7 and 9 (or 5q2d).
After killing the mice at day 13, tumors were removed and weighed. The tumor inhibitory ratio was calculated according to the following formula. [formula]

Acute toxicities (LD50) = settings: mouse, in vivo, ip; ICR male mice, 5 weeks old, intraperitoneal
Procedure: For determining acute toxicities ICR male mice, 5 weeks old, were used. The drug was administered intraperitoneally.

tumors = settings: Japanese Patent Publication (Kokai) No. 53-5162; cited from earlier work
[1] = Japanese Patent Publication (Kokai) No. 53-5162; cited from earlier work

CC12CC3(C)CC(C)(C1)CC(C(=O)Oc1nc[nH]c1C(N)=O)(C2)C3 [5-carbamoyl-1H-imidazole-4-yl 3',5',7'-trimethyladamantane-1'-carboxylate]
Inhibition Ratio, Lewis lung carcinoma (solid) (Lewis lung carcinoma): 90%
LD50 (Acute toxicities (LD50)): 670 to 1000 mg/kg

NC(=O)c1[nH]cnc1OC(=O)C12CC3CC(CC(Br)(C3)C1)C2 [5-carbamoyl-1H-imidazole-4-yl 3'-bromoadamantane-1'-carboxylate]
Inhibition Ratio, Lewis lung carcinoma (solid) (Lewis lung carcinoma): 66.2%
LD50 (Acute toxicities (LD50)): 670 to 1000 mg/kg

NC(=O)c1[nH]cnc1OC(=O)C12CC3CC(CC(Cl)(C3)C1)C2 [5-carbamoyl-1H-imidazole-4-yl 3'-chloroadamantane-1'-carboxylate]
Inhibition Ratio, Lewis lung carcinoma (solid) (Lewis lung carcinoma): 71.1%
LD50 (Acute toxicities (LD50)): > 1000 mg/kg

NC(=O)c1[nH]cnc1OC(=O)C12CC3CC(CC(F)(C3)C1)C2 [5-carbamoyl-1H-imidazole-4-yl 3'-fluoroadamantane-1'-carboxylate]
Inhibition Ratio, Lewis lung carcinoma (solid) (Lewis lung carcinoma): 65%
LD50 (Acute toxicities (LD50)): 670 to 1000 mg/kg

NC(=O)c1[nH]cnc1OC(=O)C12CC3CC(C1)CC(c1ccccc1)(C3)C2 [5-carbamoyl-1H-imidazole-4-yl 3'-phenyladamantane-1'-carboxylate]
Inhibition Ratio, Lewis lung carcinoma (solid) (Lewis lung carcinoma): 85.7%

NC(=O)c1[nH]cnc1OC(=O)C12CC3CC(CC(C3)C1)C2 [Compound (IV), 5-Carbamoyl-1H-imidazole-4-yl adamantane-1'-carboxylate]
LD50 (Acute toxicities (LD50)): 250 to 297 mg/kg
antitumor activity, known (in words) (tumors): antitumor and immunosuppressive activity
immunosuppressive activity, known (in words) [1]: immunosuppressive activity
